Series [1] addresses FXR (Homo sapiens, UniProt Q96RI1). Nature of the series: Luciferase reporter gene assay FXR, HepG2.
Description: Gal4-LBD constructs of tested nuclear receptors have been used together with pGL4.31[luc2P/GAL4UAS/Hygro] luciferase reporter construct and pRL-TK Renilla expression vector (both from Promega, Hercules, USA) in HepG2 cells transfected with Lipofectamine 2000 or 3000 reagents. For GRα and FXR receptors, full-length expression vectors have been used with pGRE-luc or pFXRE-luc luciferase constructs. For the aryl hydrocarbon receptor (AhR), p1A1-luc construct was used with only pRL-TK vector for transfection normalization. A dual reporter assay (Promega, Hercules, USA) was used to analyze both firefly and Renilla luciferase activities.
Gal4-LBD constructs of tested nuclear receptors have been used together with pGL5-luc luciferase reporter construct and pRL-TK Renilla expression vector in HepG2 cells transfected with Lipofectamine 2000 or 3000 reagents. For GRα and FXR receptors, full-length expression vectors have been used with pGRE-luc or pFXRE-luc luciferase constructs. For the aryl hydrocarbon receptor (AhR), p1A1-luc construct was used with only pRL-TK vector for transfection normalization. […] Bars represent means±S.D. (n=3).
The target of series [2] is T1, human PXR (Homo sapiens, UniProt O75469).
T1 sequence (O75469 1-434): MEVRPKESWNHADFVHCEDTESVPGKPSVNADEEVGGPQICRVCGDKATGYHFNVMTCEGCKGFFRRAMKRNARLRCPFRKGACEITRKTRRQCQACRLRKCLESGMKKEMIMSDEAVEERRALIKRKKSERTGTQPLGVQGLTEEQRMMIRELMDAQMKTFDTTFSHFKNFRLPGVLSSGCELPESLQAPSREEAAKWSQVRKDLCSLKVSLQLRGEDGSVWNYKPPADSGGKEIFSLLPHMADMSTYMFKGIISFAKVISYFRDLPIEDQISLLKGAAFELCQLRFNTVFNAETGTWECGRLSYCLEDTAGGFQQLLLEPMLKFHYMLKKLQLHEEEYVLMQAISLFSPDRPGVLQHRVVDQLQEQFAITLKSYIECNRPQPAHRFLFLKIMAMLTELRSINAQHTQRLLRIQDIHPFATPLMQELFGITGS
Description: PXR-dependent CYP3A4 reporter gene assay in H-P cells. The format is cell-based. More on the design: expressed in transfected cells; host or cells: H-P cells (HepG2 stably transfected with pcDhPXR). As for the experimental part:
Luciferase reporter gene assays in PXR expressing H-P cells and mammalian two-hybrid reporter assays have been performed as described before[55],[57].
We also analyzed PXR-dependent CYP3A4 reporter gene assays in H-P cells, which represent HepG2 cells stably over-expressing human PXR, due to transfection of PXR expression plasmid pcDhPXR^5. […] 0.01 µg Metridia luciferase expression plasmid pMetLuc2control per well was included.
(In general: Reporter assays use an easily measured gene product as a stand-in for the process of interest.)

Series [3] addresses T2, PXR/NCOA1 (Homo sapiens, UniProt O75469).
T2 construct: PXR-LBD (residues 108–434); expressed in transfected cells; host or cells: HepG2
T2 sequence (O75469 108-434): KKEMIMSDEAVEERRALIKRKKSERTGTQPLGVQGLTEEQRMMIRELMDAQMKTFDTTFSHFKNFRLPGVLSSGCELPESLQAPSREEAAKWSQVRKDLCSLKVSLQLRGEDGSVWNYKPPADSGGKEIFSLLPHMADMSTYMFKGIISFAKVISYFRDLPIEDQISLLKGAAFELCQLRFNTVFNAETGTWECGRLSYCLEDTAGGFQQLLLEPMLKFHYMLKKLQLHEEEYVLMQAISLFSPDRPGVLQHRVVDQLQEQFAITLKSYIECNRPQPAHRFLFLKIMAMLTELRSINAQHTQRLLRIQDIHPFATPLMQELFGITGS
Description: Mammalian two-hybrid PXR/coactivator NCOA1 recruitment, HepG2. More on the design: key: firefly/Metridia luciferase activity ratio (normalized). Type of series: cell-based. The method, then: The GAL4-dependent pGL4-G5, harboring a pentamer of GAL4 binding sites in front of the E1b promoter was described before.
Transient batch transfection of HepG2 cells was done as described above. […] All transfections included 0.01 µg pMetLuc2control per well for normalization of firefly luciferase reporter activities. After overnight incubation with the transfection mixtures, cells were treated with chemicals in a volume of 100 µl of cell culture medium. […] Firefly luciferase activity was measured in 10 µl of cell lysates, and Metridia luciferase activity was analyzed in 10 µl of medium supernatant, both as described before. Results were normalized by dividing firefly luciferase activity by Metridia luciferase activity measured from the same well. Measurements of samples were repeated several times (n ≥ 3).

Series [4] deals with humanized PXR-CAR-CYP3A4/3A7 mice, liver. Description: Liver enzymatic TG measurement (HFD study). The format is in vivo, mouse. The method, then: The liver tissue (10 mg) was homogenized using a pre-cooled steel bead in 225 μL of methanol in TissueLyser II (30 Hz, 2 × 30 s) (Qiagen, Hilden, Germany). This was followed by the addition of 750 μL of ice-cold methyl tert-butyl ether. Samples were vortexed and incubated for 1 h on a rotating wheel. Next, 188 μL of LC/MS-grade water was added and, after vortexing, the mixture underwent a short incubation and centrifugation (14,000 × g, 4 °C, 3 min). The upper organic phase containing lipids was collected and 300 μL was transferred to a vial containing 40 μL of 10% Triton X-100 in methanol, followed by evaporation on a heating block with shaking function (300 rpm, 45 °C). LC/MS-grade water (100 μL) was added to the evaporated sample and the tube was vortexed (1000 rpm, 35 °C). The samples were measured using a TG assay (Beckman Coulter, Brea, CA, USA) and a glycerol assay (Randox laboratories, Crumlin, UK) on an AU480 biochemistry analyzer (Beckman Coulter, Brea, CA, USA). The glycerol value was subtracted from the TG value. Livers from seven (n = 7) vehicle-treated controls and ten (n = 10) MI-883-treated animals were used.

Values joined by “and” are separate entries in the source; they are usually repeats but may differ in a detail not shown here. Identical values can stand only once.

Sequence of FXR (Q96RI1 whole entry): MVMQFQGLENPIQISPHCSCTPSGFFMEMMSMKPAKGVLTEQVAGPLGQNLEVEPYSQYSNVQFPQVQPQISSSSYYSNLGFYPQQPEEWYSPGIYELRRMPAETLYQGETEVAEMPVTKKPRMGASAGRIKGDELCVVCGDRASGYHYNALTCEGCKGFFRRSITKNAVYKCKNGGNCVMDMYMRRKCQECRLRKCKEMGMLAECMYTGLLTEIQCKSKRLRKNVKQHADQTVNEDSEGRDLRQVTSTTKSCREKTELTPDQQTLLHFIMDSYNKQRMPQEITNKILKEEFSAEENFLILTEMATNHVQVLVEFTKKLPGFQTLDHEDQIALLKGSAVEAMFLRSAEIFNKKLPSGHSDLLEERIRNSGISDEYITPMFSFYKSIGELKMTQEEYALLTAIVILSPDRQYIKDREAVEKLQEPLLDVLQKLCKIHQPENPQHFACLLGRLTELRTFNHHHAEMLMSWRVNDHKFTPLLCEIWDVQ

On to `NC(=O)c1cc(Cn2cc(-c3c(-c4ccc(Cl)cc4)nc4cc(F)ccn34)nn2)ccc1Cl` [MI-883, 2-chloro-5-((4-(2-(4-chlorophenyl)-7-fluoroimidazo[1,2-a]pyridin-3-yl)-1H-1,2,3-triazol-1-yl)methyl)benzamide], for which the “NRs assays: FXR (relative to ctrl, replicates)” value in series [1] is 0.85 and 0.88 and 1.01. Further, the “PXR-dependent CYP3A4 reporter activity in H-P cells, replicates” value is 0.825 and 0.683 and 0.491 in series [2] (5 MI883 (µM not given), DMSO ~1); 0.49 and 0.788 and 0.597 in series [2] (30 MI883); 10.8 and 10.1 and 9.53 in series [2] (RIF + 5 MI883); 5.74 and 6.79 and 5.06 in series [2] (RIF + 10 MI883); 1.18 and 2.43 and 2.32 in series [2] (RIF + 30 MI883); 0.606 and 0.813 and 0.535 in series [2] (single agent: RIF (10 µM), 10 MI883). Besides, the “PXR/NCOA1 two-hybrid activity, replicates” value was 0.25 and 0.27 and 0.49 and 0.53 and 0.45 in series [3] (MI-883 5 μM); 3.5 and 5.72 and 7.6 and 8.87 and 7.06 in series [3] (RIF + MI-883 5μM); 2.55 and 2.34 and 3.32 and 3.46 in series [3] (RIF + MI-883 10μM); 0.21 and 0.23 and 0.57 and 0.43 and 0.38 in series [3] (single agent: RIF (10 µM), MI-883 10μM, control ~1). Moreover, the “TG accumulation in male livers, enzymatic assay” value in series [4] is “no significant impact”.
